Measurements published in US20260315446A1, “ANTIFUNGAL COMPOUNDS AND USES THEREOF” (priority 2023, published 2026).
pIC50: −log10 of the molar value. ≈ marks a conversion by molar mass, not a printed value. Entries after “also recorded” stand apart in the source; their conditions may differ. Like-named read-outs stand apart in the source and are kept apart here.

How the values were obtained:
[1] = system: IL-2 expression in primary murine CD4+ T cells; assay: In vitro immunosuppressive activity, IL-2 expression (Example 1); format: cell-based, mouse; settings: for pIC50: Mus musculus, CD4+ T, 72 h, PMA and ionomycin stimulation, read-out: IL-2 50% inhibitory concentration (IC50)
Description: The potent immunosuppressive activity of FK506 and FK520 is what precludes these highly antifungal compounds from being utilized clinically to treat invasive fungal infections. Therefore, it is essential to understand the level of immunosuppressive activity for each of these analogs to determine if these C-22 modifications improve the fungal selectivity. Utilizing a primary murine T-cell model, IL-2 expression was assessed following growth in the presence of calcineurin inhibitors (FIG. 6A). Naive, primary CD4^+ T cells were collected from mice and grown for 72 h in the presence of FK506, FK520, or an analog. Following stimulation with phorbol 12-myristate 13-acetate (PMA) and ionomycin, the proportion of cells producing IL-2, a key calcineurin-dependent cytokine, was measured with flow cytometry. All compounds generated a dose-dependent reduction in IL-2 production.
Spleen and lymph nodes were collected from C57BL/6 mice and homogenized through a 40-μm filter. Pan-CD4^+ T cells were enriched using a MagniSort mouse CD4 T-cell kit (eBioscience) according to the manufacturer's protocol. Thereafter, CD4^+CD25^− CD44^loCD62L^hi naive T cells were sorted by fluorescence-activated cell sorting (FACS). The naive CD4^+ T cells were grown in Iscove's modified Dulbecco's medium (IMDM) supplemented with glutamine, penicillin, streptomycin, gentamicin, 2-mercaptoethanol, and 10% fetal bovine serum (FBS). Cells were then cultured on anti-hamster IgG-coated plates in the presence of hamster anti-CD3 epsilon and anti-CD28 antibodies (BD Biosciences), neutralizing anti-IL-4 antibody (eBioscience), recombinant IL-12 (10 ng/mL), and recombinant IL-2 (50 U/mL) for 72 h. During this period, cells were grown in the presence of 2× serially diluted FK506, FK520, or analog suspended in DMSO for 72 h. During the last 4 h of culture, phorbol 12-myristate 13-acetate (PMA; Sigma), ionomycin (Sigma), and GolgiStop (BD Biosciences) were added to the culture to facilitate detection of intracellular cytokines via flow cytometry. Live cells were stained with fluorescein isothiocyanate (FITC)-conjugated anti-CD4 antibody (eBioscience) and fixable viability dye eFluor 506 (eBioscience) on ice, followed by fixation and permeabilization using the Foxp3 transcription factor staining kit (eBioscience). Intracellular staining was performed at room temperature using phycoerythrin (PE)-conjugated anti-IL-2 antibody (eBioscience), followed by analysis with a BD LSRFortessa X-20 flow cytometer.

Aspergillus fumigatus = assay: MEC assay (Example 3)
Candida albicans = assay: MIC assay (Example 3); format: cell-based; settings: for MIC: Candida albicans, SC5314, read-out: MIC against Candida albicans (SC5314)
Description: (§1) In vitro antifungal activity was assessed for all fungal strains in RPMI 1640 (Sigma-Aldrich R1383). MICs were measured using Clinical and Laboratory Standards Institute (CLSI) M38-A2 and M27-A3 standard in vitro antifungal susceptibility protocols. C. neoformans and A. fumigatus testing was performed at 37° C. MECs for A. fumigatus were recorded after 48 h of growth. C. albicans testing was performed at 30° C. with a uniform concentration of 2 μg/mL of fluconazole to sensitize the cells to calcineurin inhibition.
(§2) C. neoformans clinical isolate H99 and congenic-derived strain KN99α were used (see, Nielsen K, et al., 2003. Infect Immun 71:4831-4841). KN99α-derived frr1Δ deletion mutants with nourseothricin resistance markers as part of the Madhani deletion collection (NIH funding R01AI100272) were used. C. deneoformans strains used include JEC21 and derived C21F2 (CNB1-1) and C21F3 (frr1-3) strains (see, Odom A, et al., 1997. EMBO J 16:2576-2589; Moore T D, Edman J C. 1993. Mol Cell Biol 13:1962-1970; Fox D S, et al., 2001. Mol Microbiol 39:835-849). C. albicans strain SC5314 is the wild-type strain from which mutants YAG171 (rbp1/rbp1) and YAG237 (CNB1-1/CNB1) were derived (see, Cruz M C, et al., 2001. Antimicrob Agents Chemother 45:3162-3170). A. fumigatus strain akuB^Ku80 and a derived FKBP12 mutant fkbp12A were used during antifungal screening (see, Falloon K, et al., 2015. PLoS One 10:e0137869).

Cryptococcus neoformans = assay: MIC assay (Example 3); format: cell-based; settings: for antifungal activity at 37° C. versus 30° C.: C. neoformans; for MIC: Cryptococcus neoformans
Description: as §1, §2

[2] = MIC80, 30° C. with 2 μg/mL fluconazole
[3] = MIC90, 37° C., read-out: MIC against Cryptococcus neoformans (H99)

C=CCC1C=C(C)CC(C)CC(OC)C2OC(O)(C(=O)C(=O)N3CCCCC3C(=O)OC(C(C)=CC3CCC(O)C(OC)C3)C(C)C(O)CC1=O)C(C)CC2OC (stereo not drawn) [FK506, reference compound]
IL-2 inhibition / immunosuppression [1]: highest level of IL-2 inhibition
MEC against Aspergillus fumigatus (akuB^Ku80) (Aspergillus fumigatus; strain akuB^Ku80): 0.04 µg/mL
MIC (Candida albicans; [2]): 0.02 µg/mL (≈ 0.0249 µM)
antifungal activity at 37° C. versus 30° C. (Cryptococcus neoformans): potent antifungal activity against C. neoformans at 37 °C but not at 30 °C
MIC (Cryptococcus neoformans; [3]): 0.05 µg/mL (≈ 0.0622 µM)
MIC (Cryptococcus neoformans; Table 8, read-out: H99 MIC90): 0.05 µg/mL (≈ 0.0622 µM)

C=CC[C@@H]1/C=C(\C)C[C@H](C)C[C@H](OC)[C@H]2O[C@@](O)(C(=O)C(=O)N3CCCC[C@H]3C(=O)O[C@H](/C(C)=C/[C@@H]3CC[C@@H](O)[C@H](OC)C3)[C@H](C)[C@@H](O)C/C1=N/NC(=O)CC)[C@H](C)C[C@@H]2OC [JH-FK-02]
pIC50 [1]: 7.37
fold increase of IL-2 IC50 / reduction of immunosuppression compared to FK506 ([1]; relative to FK506): > 380 fold

CC[C@@H]1/C=C(\C)C[C@H](C)C[C@H](OC)[C@H]2O[C@@](O)(C(=O)C(=O)N3CCCC[C@H]3C(=O)O[C@H](/C(C)=C/C3CC[C@@H](O)[C@H](OC)C3)[C@H](C)[C@@H](O)C/C1=N/NC(=O)OC)[C@H](C)C[C@@H]2OC (stereo partly drawn) [JH-FK-08]
MEC against Aspergillus fumigatus (akuB^Ku80) (Aspergillus fumigatus; strain akuB^Ku80): 1.3 µg/mL
MIC/MEC (Aspergillus fumigatus; strain akuB^Ku80): 1.25 µg/mL (≈ 1.45 µM)
MIC/MEC (Aspergillus fumigatus; strain Δfkbp12 (akuB^Ku80 fkbp12Δ)): >20 µg/mL
MIC/MEC (Candida albicans): >25 µg/mL
MIC (Candida albicans; [2]): 0.4 µg/mL (≈ 0.463 µM)
antifungal activity at 37° C. versus 30° C. (Cryptococcus neoformans): potent antifungal activity against C. neoformans at 37 °C but not at 30 °C
MIC (Cryptococcus neoformans; [3]): 0.8 µg/mL (≈ 0.926 µM)
MIC (Cryptococcus neoformans; Table 8, read-out: H99 MIC90): 0.8 µg/mL (≈ 0.926 µM)
MIC/MEC (Cryptococcus neoformans; strain frr1Δ (KN99α frr1Δ::NAT), MIC90, 37° C.): >25 µg/mL

CC[C@@H]1/C=C(\C)C[C@H](C)C[C@H](OC)[C@H]2O[C@@](O)(C(=O)C(=O)N3CCCC[C@H]3C(=O)O[C@H](/C(C)=C/[C@@H]3CC[C@@H](O)[C@H](OC)C3)[C@H](C)[C@@H](O)CC1=O)[C@H](C)C[C@@H]2OC [FK520, reference compound]
IL-2 inhibition / immunosuppression [1]: highest level of IL-2 inhibition; also recorded: slightly reduced compared to that of FK506
MEC against Aspergillus fumigatus (akuB^Ku80) (Aspergillus fumigatus): 0.16 µg/mL
MIC against Candida albicans (SC5314) (Candida albicans; [2]): 0.02 µg/mL (≈ 0.0253 µM)
antifungal activity at 37° C. versus 30° C. (Cryptococcus neoformans): potent antifungal activity against C. neoformans at 37 °C but not at 30 °C
MIC against Cryptococcus neoformans (H99) (Cryptococcus neoformans; MIC90, 37° C.): 0.05 µg/mL (≈ 0.0631 µM)
H99 MIC90 (Cryptococcus neoformans; Table 8): 0.05 µg/mL

CC[C@@H]1/C=C(\C)C[C@H](C)C[C@H](OC)[C@H]2O[C@@](O)(C(=O)C(=O)N3CCCC[C@H]3C(=O)O[C@H](/C(C)=C/[C@@H]3CC[C@@H](O)[C@H](OC)C3)[C@H](C)[C@@H](O)C/C1=N/NC(C)=O)[C@H](C)C[C@@H]2OC [JH-FK-05]
pIC50 [1]: 7.70
